Source: publication PMC6770577, “TRPM6 N-Terminal CaM- and S100A1-Binding Domains” (International Journal of Molecular Sciences, 2019)

Biological target: T1, S100A1 (Homo sapiens, UniProt P23297)
T1 construct: made in house; host or cells: E. coli BL21
T1 sequence (P23297 1-94): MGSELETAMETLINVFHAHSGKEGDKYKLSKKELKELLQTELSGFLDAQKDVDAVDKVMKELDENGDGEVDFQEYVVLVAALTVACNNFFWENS
Test: Steady-state fluorescence anisotropy binding assay, FITC-labelled TRPM6np peptides titrated with S100A1
Details: 1 μM N-terminally FITC-labelled peptide titrated with 100 μM S100A1, 50 mM Tris-HCl pH 7.5, 150 mM NaCl, 2 mM CaCl2, room temperature, at least five measurements, read-out: KD, equilibrium dissociation constant of the TRPM6np/S100A1 complex
Description: Steady-state fluorescence anisotropy experiments were performed at room temperature on a photon counting spectrometer PC1 (ISS Inc., Champaign, Illinois, USA). TRPM6npWT and its mutants were dissolved in a buffer containing 50 mM Tris-HCl (pH 7.5), 150 mM NaCl, and 2 mM CaCl2 for a final concentration of 1 μM. The samples were titrated in a 2-mm path cuvette with increasing aliquots of 100 μM CaM or S100A1. Fluorescence was excited at 495 nm; the intensity of emission in parallel (III) and perpendicular (I﬩) orientations to the direction of the polarised excitation was obtained at 520 nm by switching the emission polariser. The steady-state fluorescence anisotropy value (r) was calculated from the equation r = (III − I﬩) / (III + 2I﬩). […] Q represents the quantum yield ratio of the bound to the free peptide, calculated from fluorescence lifetimes (τ) according to equation Q = τbound/τfree. […]
Lifetimes were evaluated at room temperature in a drop placed on a coverslip and inserted into an inverted confocal microscope IX83 (Olympus, Tokyo, Japan) equipped with time-correlated single photon counting electronics and cooled GaAsP hybrid detectors (all PicoQuant, Berlin, Germany). […] fluorescence was excited at 485 nm by an LDH-485 picosecond laser (PicoQuant, Berlin, Germany). […]

Work on CC[C@H](C)[C@H](NC(=O)[C@H](CC(C)C)NC(=S)Nc1ccc2c(c1)C(=O)OC21c2ccc(O)cc2Oc2cc(O)ccc21)C(=O)NCC(=O)N[C@@H](CCCNC(=N)N)C(=O)N[C@@H](C)C(=O)N[C@@H](Cc1ccc(O)cc1)C(=O)N[C@@H](CCCNC(=N)N)C(=O)N[C@@H](CO)C(=O)N[C@@H](CC(N)=O)C(=O)N[C@@H](Cc1ccc(O)cc1)C(=O)N[C@H](C(=O)N[C@@H](CCCNC(=N)N)C(=O)N[C@@H](C)C(=O)N[C@@H](Cc1c[nH]cn1)C(=O)N[C@@H](Cc1ccccc1)C(=O)N[C@@H](CCCNC(=N)N)C(=O)O)[C@@H](C)O [K532A] yielded a Kd of 24.8 µM.

CC[C@H](C)[C@H](NC(=O)[C@H](CC(C)C)NC(=S)Nc1ccc2c(c1)C(=O)OC21c2ccc(O)cc2Oc2cc(O)ccc21)C(=O)NCC(=O)N[C@@H](CCCNC(=N)N)C(=O)N[C@@H](C)C(=O)N[C@@H](Cc1ccc(O)cc1)C(=O)N[C@@H](CCCNC(=N)N)C(=O)N[C@@H](CO)C(=O)N[C@@H](CC(N)=O)C(=O)N[C@@H](Cc1ccc(O)cc1)C(=O)N[C@H](C(=O)N[C@@H](C)C(=O)N[C@@H](C)C(=O)N[C@@H](Cc1c[nH]cn1)C(=O)N[C@@H](Cc1ccccc1)C(=O)N[C@@H](CCCNC(=N)N)C(=O)O)[C@@H](C)O [K532A/R531A] showed a Kd of 50.2 µM.
